Legend:
GBM30 cells = assay: Flow cytometry-based phagocytosis (ADCP) assay, human macrophages; type: cell-based; conditions: purified protein; vs IgG1 isotype control or vehicle
Method: For the phagocytosis assay of primary human macrophages, GBM30 cells stained with CFSE (Thermo Fisher, cat #C34554) were used as target cells. Human macrophages and target cells were co-cultured at a ratio of 1:2 for 6 hours with 5 μg/ml or 10 μg/ml of the Cmab-hCCL5 fusion protein or IgG1 isotype control in a humidified, 5% CO2 incubator at 37° C. in ultra-low-attachment 96-well U-bottom plates (Corning) in serum-free 1640 media (Life Technologies). The co-cultured cells were harvested by centrifuging at 400×g for 5 min at 4° C. and stained with an anti-human CD45 antibody (Biolegend, cat #368516) to identify macrophages. All flow cytometry data were collected using a Fortessa X20 flow cytometer (BD Biosciences). Phagocytosis was measured as the number of CD45^+CFSE^+ macrophages, quantified as a percentage of the total CD45^+ cells.

EGFR^− A2780 cells = assay: EGFR binding assay by flow cytometry on EGFR-negative cells; design: species or system human; conditions: protein purified from CHO cells; vs IgG1 isotype control
Method: (§1) U251T2, U87ΔEGFR, and A4780 cells were pre-blocked with 2% BSA and incubated with 1, 5, or 10 μg/ml purified Cmab-hCCL5 or 1, 5, or 10 μg/ml human IgG1 isotype control for 30 min. Murine CT2A-hEGFR cells were pre-blocked with 2% BSA and then incubated with 1, 5, or 10 μg/ml purified Cmab-mCCL5 or 1, 5, or 10 μg/ml human IgG1 isotype control for 30 min. After incubation, all cells were washed twice, and human cell lines were stained with APC-conjugated anti-human Fc (Jackson ImmunoResearch, cat #209-605-098) or APC-conjugated anti-human CCL5 (Biolegend, cat #515506, 149103) antibodies, whereas the murine CT2A-hEGFR cells were stained with APC-conjugated anti-human Fc or PE-conjugated anti-mouse CCL5 antibodies, for 20 min. The stained cells were analyzed using a Fortessa X20 flow cytometer (BD Biosciences).

[1] = system: human NK cells, macrophages, CD4^+ T cells, and CD8^+ T cells; assay: Transwell cell migration assay, human immune cells; type: cell-based; conditions: protein purified from CHO cells; vs IgG1 isotype control
Method: The migration capability of NK cells, T cells, and macrophages was determined using transwell chambers (Corning). Serum-starved NK cells, T cells or macrophages (10^6/well) were seeded to an upper chamber. Recombinant human (rh) CCL5, recombinant mouse (rm) CCL5, purified Cmab-hCCL5 or Cmab-mCCL5, or the supernatant containing Cmab-hCCL5 or Cmab-mCCL5 secreted from OV-Cmab-hCCL5- or OV-Cmab-mCCL5-infected U251T2 GBM cells was added to the lower chamber. The chambers were incubated at 37° C. in 5% CO2 for 12 h. Cells that migrated to the lower face of the porous membrane in the lower chamber were counted. For the T cells and NK cells, the pore size of the transwell membrane used in this assay was 3 μm as previously described (61,62). For the macrophages, the pore size of the transwell membrane used in this assay was […] as previously described (63).

[2] = system: human NK cells co-cultured with GBM30 cells; assay: NK cell activation assay (CD69, granzyme B by flow cytometry); type: cell-based; conditions: purified protein
Method: (§2) NK cell cytotoxicity was evaluated as previously described (13,64,65). Briefly, U251T2, GBM30, Gli36ΔEGFR, and CT2A-hEGFR cells were used as target cells. The target cells were labeled with ^51Cr for 1 h, followed by incubation with 5 μg/ml or 10 μg/ml of the Cmab-hCCL5 fusion protein or IgG1 isotype control for 30 min. The labeled target cells preincubated with the Cmab-hCCL5 fusion protein or IgG1 were co-cultured with isolated human primary NK cells at different effector:target ratios at 37° C. for 4 h. Release of ^51Cr was measured as counts per minute (cpm) with a MicroBeta(2) microplate radiometric counter (Perkin Elmer, Waltham, MA). […] The cell lysis percentages were calculated using the standard formula: 100×(cpm experimental release−cpm spontaneous release)/(cpm maximal release−cpm spontaneous release). […] The expression of CD69 and granzyme B, NK cell activation markers, were measured after 6-hour co-culture of NK cells and GBM30 cells with 5 μg/ml or 10 μg/ml of Cmab-hCCL5 at a ratio of 1:1 with a flow cytometer after the cells were stained with the anti-CD56 (BD, cat #557919) and anti-CD69 (BD, cat #562883) or anti-granzyme B (BD, cat #563388) antibodies. Following similar procedures, mouse CD69 was measured by an anti-CD69 (BD, cat #564683) antibody, and NK cells were marked by an anti-NKp46 (Biolegend, cat #137618) antibody.

[3] = system: U251T2 (wtEGFR), GBM30, Gli36ΔEGFR (EGFRvIII) GBM cells; assay: NK cell ADCC, 51Cr release assay, EGFR+ targets; type: cell-based, human; conditions: purified protein; wtEGFR and EGFRvIII tumor cells; vs IgG1 isotype control
Method: as §2

[4] = system: EGFR (wtEGFR U251T2 and EGFRvIII U87ΔEGFR GBM cells); assay: EGFR binding assay and CCL5 expression assay by flow cytometry (anti-human Fc / anti-human CCL5); conditions: protein purified from CHO cells
Method: as §1

[5] = molecular target: T1, EGFR (wtEGFR U251T2 and EGFRvIII U87ΔEGFR GBM cells) (Homo sapiens, UniProt P00533); assay: as above
T1 construct: U251T2 GBM cells, which express wild type EGFR (wtEGFR), U87ΔEGFR GBM cells, which express EGFRvIII; endogenous in cells; host or cells: U251T2 (wtEGFR) and U87ΔEGFR (EGFRvIII) human GBM cells
Method: as §1

Gli36ΔEGFR cells = assay: NK cell cytotoxicity (51Cr release) against TMZ-pretreated cells; type: cell-based, human
Method: TMZ, which is an imidazotetrazine that is converted to a compound capable of alkylating DNA, interferes with DNA replication and leading to cytotoxicity in proliferating cells, and has been in clinical trials for treating GBM. To detect whether OV-Cmab-CCL5 enhanced TMZ function for treating GBM, the combination therapy with OV-Cmab-CCL5 and TMZ in vivo and in vitro was performed. Gli36ΔEGFR cells were treated with 1 μM TMZ overnight, and the pretreated cells were ^51Cr-labeled and used as target cells. These cells were then incubated with 5 μg/ml Cmab-hCCL5 or vehicle for 30 min. The effector NK cells and target cells were then co-cultured at the ratios of 40:1, 20:1, and 10:1 for 4 hours and assayed for cytotoxicity. […] This function was also detected as induced by the supernatants from OV-Cmab-hCCL5-infected Gli36ΔEGFR cells. Consistent data were collected.

[6] = system: human macrophages co-cultured with GBM30 cells; assay: Quantitative PCR of human macrophage cytokine genes; type: cell-based; conditions: vs IgG1 isotype control
Method: For evaluating the effect of Cmab-hCCL5 on mRNA levels of typical human macrophage cytokine genes, human macrophages and GBM30 cells were co-cultured at a ratio of 1:1 for 6 hours with or without 5 μg/ml Cmab-hCCL5. The macrophages were stained with anti-human CD45 antibody and sorted using an Aria Fusion flow cytometer (BD Biosciences). The total RNA was extracted from the sorted macrophages for measuring the mRNA levels of human IL1B, IL6, IL12A, and NOS2 genes with their corresponding primers. 18s rRNA was used as an internal control.

| Compound | ADCP against GBM30 cells by human macrophages (GBM30 cells) | binding to EGFR^− A2780 cells (anti-human Fc antibody) (EGFR^− A2780 cells) | migration of human NK cells, macrophages, CD4^+ and CD8^+ T cells [1] | CD69 expression on NK cells ([2]; 6 hours, vs IgG1 isotype control or GBM30 cells alone) | granzyme B expression in NK cells ([2]; relative to controls) | NK cell ADCC [3] | CCL5 on cell surface (anti-CCL5 antibody) ([4]; EGFR^+ cells) | binding to tumor cells (anti-human Fc antibody) ([4]; U251T2 (wtEGFR) and U87ΔEGFR (EGFRvIII) cells) | secretion of cetuximab or CCL5, comparison of Cmab-CCL5 and reverse-order CCL5-Cmab ([5]; FIGS. 14C, 14D: flow cytometry on U251T2 with anti-Fc / anti-hCCL5) | binding to surface-expressed EGFR (anti-Fc and anti-CCL5 antibodies) ([5]; protein produced by OV-Cmab-hCCL5-infected U251T2 GBM cells) | NK cell cytotoxicity (Gli36ΔEGFR cells; 1 μM TMZ pre-treatment plus 5 μg/ml Cmab-hCCL5, vs either treatment alone) | cytokine expression in human macrophages (real-time RT-PCR) [6] | NK cell cytotoxicity (Gli36ΔEGFR cells; 1 μM TMZ overnight pre-treatment alone) |
| --- | --- | --- | --- | --- | --- | --- | --- | --- | --- | --- | --- | --- | --- |
| Cmab-hCCL5: bispecific knob-into-hole human IgG1 Fc fusion protein: cetuximab scFv arm and human CCL5 arm | induced a significantly higher level of ADCP | indistinguishable from that of IgG1 isotype control | dose-dependent increase in the migration | significantly increased the expression of CD69 | increased granzyme B expression | significantly induced NK cell ADCC | detected CCL5 on EGFR^+ cell surfaces | selectively bound to tumor cells expressing wtEGFR or EGFRvIII | no difference | confirmed to bind to surface-expressed EGFR | significantly higher degree of NK cell cytotoxicity | significantly increased IL-1B, IL-6, IL-12, and NOS2 expression | – |
| Cn1nnc2c(C(N)=O)ncn2c1=O [TMZ, Temozolomide, reference compound] | – | – | – | – | – | – | – | – | – | – | – | – | enhanced NK cell cytotoxicity |
